{"source": "paper PMC6199744", "about": "“Development of Chemical Proteomics for the Folateome and Analysis of the Kinetoplastid Folateome” (ACS Infectious Diseases, 2018)", "format_in_all_cases": "binding", "key": {"[1]": {"biological_target": "T1, HeLa cell extract proteins (Homo sapiens, UniProt P55010)", "T1 construct": "endogenous in cells; host or cells: HeLa cell extract", "T1 sequence (P55010 whole entry)": "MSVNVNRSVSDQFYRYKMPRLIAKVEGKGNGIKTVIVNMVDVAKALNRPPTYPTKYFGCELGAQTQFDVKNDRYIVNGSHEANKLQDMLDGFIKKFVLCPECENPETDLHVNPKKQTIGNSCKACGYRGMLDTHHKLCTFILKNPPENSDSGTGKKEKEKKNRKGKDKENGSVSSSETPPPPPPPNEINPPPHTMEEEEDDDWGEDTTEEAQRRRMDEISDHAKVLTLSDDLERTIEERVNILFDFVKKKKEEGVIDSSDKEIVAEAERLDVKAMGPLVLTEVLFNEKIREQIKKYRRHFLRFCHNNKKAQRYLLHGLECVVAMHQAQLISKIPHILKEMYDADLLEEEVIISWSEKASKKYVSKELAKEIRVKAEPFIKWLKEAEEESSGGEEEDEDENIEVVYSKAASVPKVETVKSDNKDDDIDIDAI"}, "[2]": {"biological_target": "T2, HeLa cell extract proteins (Homo sapiens, UniProt P16219)", "T2 construct": "endogenous in cells; host or cells: HeLa cell extract", "T2 sequence (P16219 25-412)": "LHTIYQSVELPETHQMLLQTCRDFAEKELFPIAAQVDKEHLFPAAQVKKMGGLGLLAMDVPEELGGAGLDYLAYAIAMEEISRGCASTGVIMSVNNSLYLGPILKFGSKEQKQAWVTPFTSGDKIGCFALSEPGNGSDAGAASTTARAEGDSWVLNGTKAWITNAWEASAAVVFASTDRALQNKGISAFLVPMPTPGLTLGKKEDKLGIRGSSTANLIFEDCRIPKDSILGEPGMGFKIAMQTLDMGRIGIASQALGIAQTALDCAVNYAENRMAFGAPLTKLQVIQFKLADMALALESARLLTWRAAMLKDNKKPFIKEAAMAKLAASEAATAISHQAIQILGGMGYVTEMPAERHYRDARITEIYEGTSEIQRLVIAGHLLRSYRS"}, "[3]": {"biological_target": "T3, HeLa cell extract proteins (Homo sapiens, UniProt P12956)", "T3 construct": "endogenous in cells; host or cells: HeLa cell extract", "T3 sequence (P12956 whole entry)": "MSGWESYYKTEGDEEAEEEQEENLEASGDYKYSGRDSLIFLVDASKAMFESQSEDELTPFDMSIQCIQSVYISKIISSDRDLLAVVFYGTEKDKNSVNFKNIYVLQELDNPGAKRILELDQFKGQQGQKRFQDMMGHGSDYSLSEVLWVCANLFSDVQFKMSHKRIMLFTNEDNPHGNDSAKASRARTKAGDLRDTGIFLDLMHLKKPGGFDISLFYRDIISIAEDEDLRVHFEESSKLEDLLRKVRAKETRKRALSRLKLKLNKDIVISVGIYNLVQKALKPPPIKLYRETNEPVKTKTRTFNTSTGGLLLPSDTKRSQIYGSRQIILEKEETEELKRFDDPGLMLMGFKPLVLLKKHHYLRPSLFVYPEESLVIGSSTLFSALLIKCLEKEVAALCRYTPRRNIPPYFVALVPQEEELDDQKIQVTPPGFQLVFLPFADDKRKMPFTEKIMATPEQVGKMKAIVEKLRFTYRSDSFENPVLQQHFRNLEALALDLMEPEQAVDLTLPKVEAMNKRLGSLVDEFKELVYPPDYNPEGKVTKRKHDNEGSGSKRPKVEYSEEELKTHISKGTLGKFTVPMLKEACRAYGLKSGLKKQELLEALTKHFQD"}, "[4]": {"biological_target": "T4, HeLa cell extract proteins (Homo sapiens, UniProt Q9P2K8)", "T4 construct": "endogenous in cells; host or cells: HeLa cell extract", "T4 sequence (Q9P2K8 whole entry)": "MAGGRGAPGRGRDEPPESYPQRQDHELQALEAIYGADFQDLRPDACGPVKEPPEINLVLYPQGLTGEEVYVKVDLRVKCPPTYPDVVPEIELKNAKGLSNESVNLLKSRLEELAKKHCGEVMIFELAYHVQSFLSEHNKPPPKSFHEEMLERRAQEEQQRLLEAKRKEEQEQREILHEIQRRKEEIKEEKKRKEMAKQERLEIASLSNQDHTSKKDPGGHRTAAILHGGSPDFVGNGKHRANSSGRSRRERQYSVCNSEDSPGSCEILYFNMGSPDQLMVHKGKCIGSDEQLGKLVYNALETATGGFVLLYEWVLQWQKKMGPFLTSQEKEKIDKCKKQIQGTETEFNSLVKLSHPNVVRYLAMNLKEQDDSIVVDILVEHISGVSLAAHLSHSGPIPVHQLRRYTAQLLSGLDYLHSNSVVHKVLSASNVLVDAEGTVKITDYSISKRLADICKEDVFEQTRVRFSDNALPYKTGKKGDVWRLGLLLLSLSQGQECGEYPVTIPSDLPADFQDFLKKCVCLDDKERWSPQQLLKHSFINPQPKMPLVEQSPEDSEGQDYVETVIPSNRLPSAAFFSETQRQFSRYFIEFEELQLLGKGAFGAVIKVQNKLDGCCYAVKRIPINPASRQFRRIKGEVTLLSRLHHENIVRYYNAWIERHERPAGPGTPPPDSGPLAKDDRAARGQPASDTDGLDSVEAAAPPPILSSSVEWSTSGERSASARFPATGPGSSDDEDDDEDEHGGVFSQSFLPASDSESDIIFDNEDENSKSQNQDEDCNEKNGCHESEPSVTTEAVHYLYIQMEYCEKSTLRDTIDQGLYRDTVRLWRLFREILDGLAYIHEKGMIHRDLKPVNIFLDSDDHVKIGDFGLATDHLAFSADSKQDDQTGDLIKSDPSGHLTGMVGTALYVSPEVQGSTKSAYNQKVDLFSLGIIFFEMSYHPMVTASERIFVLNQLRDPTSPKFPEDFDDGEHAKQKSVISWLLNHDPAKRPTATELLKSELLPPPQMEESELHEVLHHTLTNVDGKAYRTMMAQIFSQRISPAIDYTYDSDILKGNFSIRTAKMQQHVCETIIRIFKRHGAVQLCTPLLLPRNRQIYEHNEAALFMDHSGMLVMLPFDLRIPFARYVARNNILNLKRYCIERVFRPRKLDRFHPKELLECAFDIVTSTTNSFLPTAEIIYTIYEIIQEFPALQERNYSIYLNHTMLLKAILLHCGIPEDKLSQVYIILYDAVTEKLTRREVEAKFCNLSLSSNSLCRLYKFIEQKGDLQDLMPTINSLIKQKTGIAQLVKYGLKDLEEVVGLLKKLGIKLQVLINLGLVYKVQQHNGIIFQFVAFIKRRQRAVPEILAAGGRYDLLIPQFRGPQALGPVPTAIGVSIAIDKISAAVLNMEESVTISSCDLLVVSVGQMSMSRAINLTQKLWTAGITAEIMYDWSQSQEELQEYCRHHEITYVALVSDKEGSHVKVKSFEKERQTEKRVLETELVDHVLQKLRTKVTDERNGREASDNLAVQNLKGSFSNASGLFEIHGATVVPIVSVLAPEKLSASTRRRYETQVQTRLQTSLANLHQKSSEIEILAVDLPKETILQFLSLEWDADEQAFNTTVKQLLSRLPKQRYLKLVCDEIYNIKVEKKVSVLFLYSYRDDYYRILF"}, "[5]": {"biological_target": "T5, HeLa cell extract proteins (Homo sapiens, UniProt Q12931)", "T5 construct": "endogenous in cells; host or cells: HeLa cell extract", "T5 sequence (Q12931 60-704)": "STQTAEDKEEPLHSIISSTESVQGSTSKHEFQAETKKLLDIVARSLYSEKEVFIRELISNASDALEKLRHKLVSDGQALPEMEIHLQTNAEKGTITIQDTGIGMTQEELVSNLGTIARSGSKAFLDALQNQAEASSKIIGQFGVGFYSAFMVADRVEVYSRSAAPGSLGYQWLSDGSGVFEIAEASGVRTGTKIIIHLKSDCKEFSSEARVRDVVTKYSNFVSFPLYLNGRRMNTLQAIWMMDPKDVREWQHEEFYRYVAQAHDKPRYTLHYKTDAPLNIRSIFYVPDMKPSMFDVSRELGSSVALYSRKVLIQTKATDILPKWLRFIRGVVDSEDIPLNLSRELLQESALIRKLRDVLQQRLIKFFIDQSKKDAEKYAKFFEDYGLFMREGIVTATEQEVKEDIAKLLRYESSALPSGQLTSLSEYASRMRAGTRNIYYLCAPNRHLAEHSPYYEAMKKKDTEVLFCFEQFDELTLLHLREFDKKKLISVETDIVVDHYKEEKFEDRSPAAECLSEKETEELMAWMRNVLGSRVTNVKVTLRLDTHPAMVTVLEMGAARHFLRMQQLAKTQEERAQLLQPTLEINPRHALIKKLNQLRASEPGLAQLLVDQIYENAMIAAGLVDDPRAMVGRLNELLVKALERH"}, "[6]": {"biological_target": "T6, HeLa cell extract proteins (Homo sapiens, UniProt Q9H0U4)", "T6 construct": "endogenous in cells; host or cells: HeLa cell extract", "T6 sequence (Q9H0U4 whole entry)": "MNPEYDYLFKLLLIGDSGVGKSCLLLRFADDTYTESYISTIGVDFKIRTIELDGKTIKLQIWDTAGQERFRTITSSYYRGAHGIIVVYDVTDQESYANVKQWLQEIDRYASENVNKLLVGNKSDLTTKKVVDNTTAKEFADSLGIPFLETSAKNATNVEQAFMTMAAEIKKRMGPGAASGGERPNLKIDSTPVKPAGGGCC"}, "[7]": {"biological_target": "T7, HeLa cell extract proteins (Homo sapiens, UniProt Q2TB90)", "T7 construct": "endogenous in cells; host or cells: HeLa cell extract", "T7 sequence (Q2TB90 1-917)": "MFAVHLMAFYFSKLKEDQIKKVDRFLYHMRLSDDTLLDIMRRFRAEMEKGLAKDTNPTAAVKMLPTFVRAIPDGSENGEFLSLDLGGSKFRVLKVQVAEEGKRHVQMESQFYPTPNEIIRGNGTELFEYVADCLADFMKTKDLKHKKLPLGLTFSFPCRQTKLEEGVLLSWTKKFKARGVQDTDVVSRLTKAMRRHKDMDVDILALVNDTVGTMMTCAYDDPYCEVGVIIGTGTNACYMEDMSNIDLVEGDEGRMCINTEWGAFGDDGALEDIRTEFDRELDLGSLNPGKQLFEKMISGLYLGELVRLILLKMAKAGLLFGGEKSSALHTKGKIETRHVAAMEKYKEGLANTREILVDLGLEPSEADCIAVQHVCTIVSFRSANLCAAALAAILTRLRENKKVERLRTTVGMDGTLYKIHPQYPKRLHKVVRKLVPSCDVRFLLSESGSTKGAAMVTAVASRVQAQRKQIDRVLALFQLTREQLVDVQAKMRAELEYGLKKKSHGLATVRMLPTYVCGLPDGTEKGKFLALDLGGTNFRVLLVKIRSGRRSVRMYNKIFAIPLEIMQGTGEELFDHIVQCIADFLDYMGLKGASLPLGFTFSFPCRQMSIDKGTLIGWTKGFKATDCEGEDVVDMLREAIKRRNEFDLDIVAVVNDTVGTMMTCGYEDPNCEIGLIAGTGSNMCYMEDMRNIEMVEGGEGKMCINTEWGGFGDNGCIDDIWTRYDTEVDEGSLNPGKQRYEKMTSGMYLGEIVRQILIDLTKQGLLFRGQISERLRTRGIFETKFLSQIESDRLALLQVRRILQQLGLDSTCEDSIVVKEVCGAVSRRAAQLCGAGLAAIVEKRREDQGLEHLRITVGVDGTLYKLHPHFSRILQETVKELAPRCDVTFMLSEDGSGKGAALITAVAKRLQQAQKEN"}, "[8]": {"conditions": "HeLa, protein ACADS (SHORT-CHAIN SPECIFIC ACYL-COA DEHYDROGENASE, MIT[…])"}}, "note": "Where two headings read alike, the source gives them in different places."}
{"smiles": "Nc1nc2c(c(=O)[nH]1)N(C=O)C(CNc1ccc(C(=O)N[C@@H](CCC(=O)O)C(=O)O)cc1)CN2", "note": "(stereo partly shown) [LEU, leucovorin]", "values": [{"measurement": "fold changes relative to vehicle control", "setting": "[1]; HeLa, captured protein EIF5", "value": 0.98}, {"measurement": "fold changes relative to vehicle control", "setting": "[2]; [8]", "value": 1.06}, {"measurement": "fold changes relative to vehicle control", "setting": "[3]; HeLa, protein XRCC6", "value": 0.96}, {"measurement": "fold changes relative to vehicle control", "setting": "[4]; HeLa, protein EIF2AK4 (ISOFORM 1 OF EUKARYOTIC TRANSLATION INITIATION FACTOR 2-ALPHA KINASE 4)", "value": 0.83}, {"measurement": "fold changes relative to vehicle control", "setting": "[5]; protein TRAP1, HeLa", "value": 0.95}, {"measurement": "fold changes relative to vehicle control", "setting": "[6]; HeLa, protein RAB1B", "value": 0.93}, {"measurement": "fold changes relative to vehicle control", "setting": "[7]; HeLa, protein HKDC1", "value": 0.89}]}
{"smiles": "Nc1nc2[nH]cc(CCc3ccc(C(=O)N[C@@H](CCC(=O)O)C(=O)O)cc3)c2c(=O)[nH]1", "note": "[PTX, pemetrexed]", "values": [{"measurement": "fold changes relative to vehicle control", "setting": "[1]", "value": 1.05}, {"measurement": "fold changes relative to vehicle control", "setting": "[2]", "value": 1.09}, {"measurement": "fold changes relative to vehicle control", "setting": "[3]", "value": 1.02}, {"measurement": "fold changes relative to vehicle control", "setting": "[4]", "value": 0.65}, {"measurement": "fold changes relative to vehicle control", "setting": "[5]", "value": 1.02}, {"measurement": "fold changes relative to vehicle control", "setting": "[6]", "value": 0.93}, {"measurement": "fold changes relative to vehicle control", "setting": "[7]", "value": 0.89}]}
{"smiles": "CCCCCCOc1ccc(Cc2cnc(N)nc2N)cc1", "note": "[compound 1]", "values": [{"measurement": "fold changes relative to vehicle control", "setting": "[1]", "value": 1.24, "unit": "fold"}, {"measurement": "fold changes relative to vehicle control", "setting": "[2]; protein ACADS, HeLa", "value": 0.91}, {"measurement": "fold changes relative to vehicle control", "setting": "[3]; protein XRCC6, HeLa", "value": 1.13}, {"measurement": "fold changes relative to vehicle control", "setting": "[4]; captured protein EIF2AK4, HeLa", "value": 0.97}, {"measurement": "fold changes relative to vehicle control", "setting": "[5]; protein TRAP1, HeLa", "value": 1.27}, {"measurement": "fold changes relative to vehicle control", "setting": "[6]; protein RAB1B, HeLa", "value": 1.14}, {"measurement": "fold changes relative to vehicle control", "setting": "[7]; captured protein HKDC1, HeLa", "value": 1}]}
{"smiles": "CCCCCCOc1cccc(Cc2cnc(N)nc2N)c1", "note": "[compound 2]", "values": [{"measurement": "fold changes relative to vehicle control", "setting": "[1]; HeLa, protein EIF5 (EUKARYOTIC TRANSLATION INITIATION FACTOR 5.)", "value": 2.16, "unit": "fold"}, {"measurement": "fold changes relative to vehicle control", "setting": "[2]; protein ACADS, HeLa", "value": 1.1}, {"measurement": "fold changes relative to vehicle control", "setting": "[3]; protein XRCC6, HeLa", "value": 1.93}, {"measurement": "fold changes relative to vehicle control", "setting": "[4]; captured protein EIF2AK4, HeLa", "value": 0.96}, {"measurement": "fold changes relative to vehicle control", "setting": "[5]; protein TRAP1, HeLa", "value": 1.77}, {"measurement": "fold changes relative to vehicle control", "setting": "[6]; protein RAB1B, HeLa", "value": 1.41}, {"measurement": "fold changes relative to vehicle control", "setting": "[7]; captured protein HKDC1, HeLa", "value": 1.1}]}
{"smiles": "Nc1nc2cccc(-c3ccccc3)c2n1Cc1ccc(Cl)c(Cl)c1", "note": "[compound 3]", "values": [{"measurement": "fold changes relative to vehicle control", "setting": "[1]", "value": 0.91, "unit": "fold"}, {"measurement": "fold changes relative to vehicle control", "setting": "[2]; protein ACADS, HeLa", "value": 0.99}, {"measurement": "fold changes relative to vehicle control", "setting": "[3]; protein XRCC6, HeLa", "value": 0.92}, {"measurement": "fold changes relative to vehicle control", "setting": "[4]; captured protein EIF2AK4, HeLa", "value": 1.02}, {"measurement": "fold changes relative to vehicle control", "setting": "[5]; protein TRAP1, HeLa", "value": 1.06}, {"measurement": "fold changes relative to vehicle control", "setting": "[6]; protein RAB1B, HeLa", "value": 1.09}, {"measurement": "fold changes relative to vehicle control", "setting": "[7]; captured protein HKDC1, HeLa", "value": 1.05}]}
{"smiles": "NCCOCCOCC(=O)Nc1nc2ncc(CNc3ccc(C(=O)NC(CCC(=O)O)C(=O)O)cc3)nc2c(=O)[nH]1", "note": "(stereo not shown) [compound 6]", "values": [{"measurement": "fold changes relative to vehicle control", "setting": "[1]; HeLa, captured protein EIF5", "value": 1.64}, {"measurement": "fold changes relative to vehicle control", "setting": "[2]; [8]", "value": 1.07}, {"measurement": "fold changes relative to vehicle control", "setting": "[3]; HeLa, protein XRCC6", "value": 1.09}, {"measurement": "fold changes relative to vehicle control", "setting": "[4]", "value": 1.02}, {"measurement": "fold changes relative to vehicle control", "setting": "[5]; protein TRAP1, HeLa", "value": 1.2}, {"measurement": "fold changes relative to vehicle control", "setting": "[6]; HeLa, protein RAB1B", "value": 0.98}, {"measurement": "fold changes relative to vehicle control", "setting": "[7]; HeLa, protein HKDC1", "value": 1.06}]}
{"smiles": "NCCCNc1ccc(C(=O)NC(CCC(=O)O)C(=O)O)cc1", "note": "(stereo not shown) [compound 7]", "values": [{"measurement": "fold changes relative to vehicle control", "setting": "[1]; HeLa, captured protein EIF5", "value": 0.94}, {"measurement": "fold changes relative to vehicle control", "setting": "[2]; [8]", "value": 1.04}, {"measurement": "fold changes relative to vehicle control", "setting": "[3]; HeLa, protein XRCC6", "value": 0.92}, {"measurement": "fold changes relative to vehicle control", "setting": "[4]", "value": 1.02}, {"measurement": "fold changes relative to vehicle control", "setting": "[5]; protein TRAP1, HeLa", "value": 1.01}, {"measurement": "fold changes relative to vehicle control", "setting": "[6]; HeLa, protein RAB1B", "value": 0.91}, {"measurement": "fold changes relative to vehicle control", "setting": "[7]; HeLa, protein HKDC1", "value": 1.09}]}
